Literature values, collected in paper PMC7434893 (British Journal of Cancer, 2020).

Target: tankyrase 1/2
Conditions: relative to E7449; cited from earlier work

For NC(=O)c1cccc2cn(-c3ccc([C@@H]4CCCNC4)cc3)nc12 [niraparib], the “IC50 values for tankyrase inhibition, fold higher than E7449” value is listed as 5–20 fold.
In the case of O=C(c1cc(Cc2n[nH]c(=O)c3ccccc23)ccc1F)N1CCN(C(=O)C2CC2)CC1 [olaparib], the “IC50 values for tankyrase inhibition, fold higher than E7449” value is listed as 5–20 fold.
In the case of C[C@]1(c2nc3c(C(N)=O)cccc3[nH]2)CCCN1 [veliparib], the “IC50 values for tankyrase inhibition, fold higher than E7449” value is given as 5–20 fold.
